According to patent publication US8305585B2, “Fiber-optic assay apparatus based on phase-shift interferometry” (Pall Corporation, priority 2003, dated 2012):

Columns and labels:
anti-Lewis Y antibody = experiment: Negative control: binding to immobilized irrelevant antibody; conditions: 200 μg/mL biotin
Experimental: Another negative control was carried out using an irrelevant antibody (anti-Lewis Y antibody from Calbiochem, San Diego Calif.; cat #434636) immobilized in an identical fashion to the anti-biotin antibody above. This immobilized antibody was exposed to a solution of 200 μg/mL biotin.

[1] = test system: mouse anti-biotin antibody; experiment: Small molecule binding to immobilized anti-biotin antibody on NHS-ester activated tip; conditions: biotin 200 μg/mL, sucrose 2 mg/mL in PBS; FIG. 10
Experimental: This example illustrates the binding of a low molecular weight molecule binding to an immobilized high molecular weight molecule. […] The tip was rinsed with PBS for 2 minutes. Following the PBS rinse, the tip was quenched with an aqueous solution of 100 μM ethanolamine pH 8.5 (Sigma-Aldrich Chemical Company, St Louis, Mo.; cat #E9508) for 5 minutes and then was rinsed again in PBS for 2 minutes.
Controls using a solution of sucrose (Sigma-Aldrich Chemical Company, St Louis, Mo.; cat #S8501) (2 mg/mL) and PBS were carried out on the second and the third fibers to determine baseline noise.

[2] = Sequential binding test on biotin-derivatized sensor tip; conditions: 50 μg/ml in PBS, 9 minutes; FIG. 6
Excerpt: The two-layer configuration on the tip of an optic fiber is used for this test. The thickness of the first Ta2O5 layer is 25 nm and the thickness of the second SiO2 layer is 770 nm. The fiber was purchased from Ocean Optics (Dunedin, Fla.). It was manually cut into segments that are 40 mm long. Both ends of these segments were polished to standard mirror surface quality. The polishing method used here was exactly the same as those for optical lenses and mirrors. One surface of these fiber segments was outsourced to an optical coating house for Ta2O5 layer and SiO2 layer. This vendor employed an ion-beam assisted physical vapor deposition (IAPVD) coater made by […] is a commonly used coating technique for anti-reflection and optical filters. The experimental steps included the following (all steps are performed at room temperature unless otherwise noted): The fiber tip was coated with a polymer monolayer derivatized with biotin. The polymer monolayer was prepared using a biotinylated lipid (custom). This lipid was using to form a lipid monolayer on the surface of water solution. The monolayer was cross linked using UV light for 15minutes. Clean, dry fibers were then brought in contact with the floating thin film and the biotin polymer was adsorbed onto the fiber tip. The fibers were then dryed at 60° C. for 1 hour. […]

| Molecule | binding to irrelevant antibody (anti-Lewis Y antibody) | change in optical thickness on exposure (binding) [1] | binding to immobilized biotin (7th order valley phase shift) [2] |
| --- | --- | --- | --- |
| O=C(O)CCCC[C@@H]1SC[C@@H]2NC(=O)N[C@@H]21 [biotin] | lack of biotin binding | increase in optical thickness | – |
| OC[C@H]1O[C@@](CO)(O[C@H]2O[C@H](CO)[C@@H](O)[C@H](O)[C@H]2O)[C@@H](O)[C@@H]1O [sucrose] | – | no detectable increase over baseline | – |
| streptavidin: streptavidin (Pierce Biotechnology, cat #21122) | – | – | binding |
